Source: the NIST ThermoML archive (doi:10.1016/j.jct.2018.01.024)

Test: mn = molality of the nth substance listed, in mol/kg
Details: Liquid

NC(N)=O [urea] + O
mass density [kg/m3]
Details | 288.15 K | 298.15 K | 308.15 K
101 kPa, Vibrating tube method, m1 = 0.093 | – | 998.52 | 995.45
101 kPa, Vibrating tube method, m1 = 0.1063 | – | 998.73 | 995.65
101 kPa, Vibrating tube method, m1 = 0.141 | – | 999.27 | 996.18
101 kPa, Vibrating tube method, m1 = 0.152 | – | 999.45 | 996.35
101 kPa, Vibrating tube method, m1 = 0.1809 | – | 999.9 | 996.79
101 kPa, Vibrating tube method, m1 = 0.2423 | – | 1000.86 | 997.71
101 kPa, Vibrating tube method, m1 = 0.4362 | – | 1003.84 | 1000.59
101 kPa, Vibrating tube method, m1 = 0.5644 | – | 1005.78 | 1002.47
101 kPa, Vibrating tube method, m1 = 1.008 | – | 1012.3 | 1008.78
101 kPa, Vibrating tube method, m1 = 1.609 | – | 1020.67 | 1016.91
101 kPa, Vibrating tube method, m1 = 2.505 | – | 1032.29 | 1028.21
101 kPa, Vibrating tube method, m1 = 3.376 | – | 1042.7 | 1038.34
101 kPa, Vibrating tube method, m1 = 4.33 | – | 1053.2 | 1048.55
101 kPa, Vibrating tube method, m1 = 5.39 | – | 1063.84 | 1058.96
101 kPa, Vibrating tube method, m1 = 8 | – | 1086.63 | 1081.22
101 kPa, Vibrating tube method, m1 = 9.9 | – | 1100.56 | 1094.97
101 kPa, Vibrating tube method, m1 = 12.8 | – | 1118.82 | 1112.9
10000 kPa, Constant-volume piezometry, m1 = 0.1809 | – | 1004.31 | 1001.1
10000 kPa, Constant-volume piezometry, m1 = 0.4362 | – | 1008.22 | 1004.89
10000 kPa, Constant-volume piezometry, m1 = 0.5644 | – | 1010.14 | 1006.76
10000 kPa, Constant-volume piezometry, m1 = 1.609 | – | 1024.95 | 1021.13
10000 kPa, Constant-volume piezometry, m1 = 2.505 | – | 1036.5 | 1032.37
10000 kPa, Constant-volume piezometry, m1 = 3.376 | – | 1046.86 | 1042.44
10000 kPa, Constant-volume piezometry, m1 = 5.39 | – | 1067.88 | 1062.95
10000 kPa, Constant-volume piezometry, m1 = 8 | – | 1090.56 | 1085.13
10000 kPa, Constant-volume piezometry, m1 = 10.99 | – | 1111.68 | 1105.95
10000 kPa, Constant-volume piezometry, m1 = 12.8 | – | 1122.59 | 1116.69
25000 kPa, Constant-volume piezometry, m1 = 0.1809 | – | 1010.8 | 1007.46
25000 kPa, Constant-volume piezometry, m1 = 0.4362 | – | 1014.67 | 1011.22
25000 kPa, Constant-volume piezometry, m1 = 0.5644 | – | 1016.58 | 1013.08
25000 kPa, Constant-volume piezometry, m1 = 1.609 | – | 1031.23 | 1027.31
25000 kPa, Constant-volume piezometry, m1 = 2.505 | – | 1042.68 | 1038.45
25000 kPa, Constant-volume piezometry, m1 = 3.376 | – | 1052.93 | 1048.43
25000 kPa, Constant-volume piezometry, m1 = 5.39 | – | 1073.78 | 1068.78
25000 kPa, Constant-volume piezometry, m1 = 8 | – | 1096.33 | 1090.83
25000 kPa, Constant-volume piezometry, m1 = 10.99 | – | 1117.29 | 1111.57
25000 kPa, Constant-volume piezometry, m1 = 12.8 | – | 1128.17 | 1122.24
50000 kPa, Constant-volume piezometry, m1 = 0.1809 | – | 1021.19 | 1017.66
50000 kPa, Constant-volume piezometry, m1 = 0.4362 | – | 1025 | –
50000 kPa, Constant-volume piezometry, m1 = 0.5644 | – | 1026.87 | –
50000 kPa, Constant-volume piezometry, m1 = 1.609 | – | 1041.28 | –
50000 kPa, Constant-volume piezometry, m1 = 2.505 | – | 1052.51 | –
50000 kPa, Constant-volume piezometry, m1 = 3.376 | – | 1062.57 | –
50000 kPa, Constant-volume piezometry, m1 = 5.39 | – | 1083.08 | –
50000 kPa, Constant-volume piezometry, m1 = 8 | – | 1105.37 | –
50000 kPa, Constant-volume piezometry, m1 = 10.99 | – | 1126.18 | –
50000 kPa, Constant-volume piezometry, m1 = 12.8 | – | 1136.9 | –
75000 kPa, Constant-volume piezometry, m1 = 0.1809 | – | 1031.09 | –
75000 kPa, Constant-volume piezometry, m1 = 0.4362 | – | 1034.82 | –
75000 kPa, Constant-volume piezometry, m1 = 0.5644 | – | 1036.66 | –
75000 kPa, Constant-volume piezometry, m1 = 1.609 | – | 1050.81 | –
75000 kPa, Constant-volume piezometry, m1 = 2.505 | – | 1061.84 | –
75000 kPa, Constant-volume piezometry, m1 = 3.376 | – | 1071.73 | –
75000 kPa, Constant-volume piezometry, m1 = 5.39 | – | 1091.95 | –
75000 kPa, Constant-volume piezometry, m1 = 8 | – | 1113.92 | –
75000 kPa, Constant-volume piezometry, m1 = 10.99 | – | 1134.57 | –
75000 kPa, Constant-volume piezometry, m1 = 12.8 | – | 1145.19 | –
100000 kPa, Constant-volume piezometry, m1 = 0.1809 | – | 1040.52 | –
100000 kPa, Constant-volume piezometry, m1 = 0.4362 | – | 1044.19 | –
100000 kPa, Constant-volume piezometry, m1 = 0.5644 | 1049.66 | 1046 | –
100000 kPa, Constant-volume piezometry, m1 = 1.609 | 1063.93 | 1059.92 | –
100000 kPa, Constant-volume piezometry, m1 = 2.505 | 1075.04 | 1070.84 | –
100000 kPa, Constant-volume piezometry, m1 = 3.376 | 1085.01 | 1080.63 | –
100000 kPa, Constant-volume piezometry, m1 = 5.39 | 1105.48 | 1100.6 | –
100000 kPa, Constant-volume piezometry, m1 = 8 | 1127.8 | 1122.4 | –
100000 kPa, Constant-volume piezometry, m1 = 10.99 | 1148.53 | 1142.75 | –
100000 kPa, Constant-volume piezometry, m1 = 12.8 | 1159.2 | 1153.24 | –
